Data reported in PubChem BioAssay AID256 (DTP/NCI, 2004).
Where “and” joins values, the source holds several entries; their conditions need not be identical. Equal entries are not always repeated. Inconclusive results and toxic doses are left out. Rule for the calls: active = survival T/C of 150% or more; inactive = T/C below 125% in these data.

Test system: CD2F1 mice, L1210 leukemia ip, survival T/C
Experiment: NCI In Vivo Anticancer Drug Screen. Data for tumor model L1210 Leukemia (intraperitoneal) in CD2F1 (CDF1) mice
Conditions: higher = longer survival
Procedure, shortened: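 Implant tumor; dose compound or vehicle; measure endpoint in both groups; report treated divided by control.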

[1] = endpoint: mean survival time, dose: 50.0 mg/kg/injection, schedule: Q01DX009 (ip), vehicle: saline with Tween-80
[2] = endpoint: mean survival time, dose: 100.0 mg/kg/injection, schedule: Q04DX003 (ip), vehicle: saline with Tween-80
[3] = endpoint: mean survival time, dose: 200.0 mg/kg/injection, schedule: Q04DX003 (ip), vehicle: saline with Tween-80
[4] = endpoint: mean survival time, dose: 400.0 mg/kg/injection, schedule: Q04DX003 (ip), vehicle: saline with Tween-80
[5] = endpoint: mean survival time, dose: 100.0 mg/kg/injection, schedule: Q01DX009 (ip), vehicle: saline with Tween-80
[6] = endpoint: mean survival time, dose: 200.0 mg/kg/injection, schedule: Q01DX009 (ip), vehicle: saline with Tween-80
[7] = endpoint: mean survival time, dose: 400.0 mg/kg/injection, schedule: Q01DX009 (ip), vehicle: saline with Tween-80
[8] = endpoint: mean survival time, dose: 100.0 mg/kg/injection, schedule: Q04DX002 (ip), vehicle: saline with Tween-80
[9] = endpoint: mean survival time, dose: 200.0 mg/kg/injection, schedule: Q04DX002 (ip), vehicle: saline with Tween-80
[10] = endpoint: mean survival time, dose: 400.0 mg/kg/injection, schedule: Q04DX002 (ip), vehicle: saline with Tween-80

Measured: T/C

NNC(=O)c1ccccc1Cl
inactive: endpoint: mean survival time, dose: 9.5 mg/kg/injection, schedule: Q01DX001 (ip), vehicle: other 97 % of control | endpoint: mean survival time, dose: 19.0 mg/kg/injection, schedule: Q01DX001 (ip), vehicle: other 95 % of control | endpoint: mean survival time, dose: 38.0 mg/kg/injection, schedule: Q01DX001 (ip), vehicle: other 97 % of control

Cc1ccc(N2C(=O)C=CC2=O)cc1
inactive: endpoint: mean survival time, dose: 5.0 mg/kg/injection, schedule: Q01DX009 (ip), vehicle: saline sonified 94 % of control | endpoint: mean survival time, dose: 5.0 mg/kg/injection, schedule: Q04DX003 (ip), vehicle: saline sonified 96 % of control | endpoint: mean survival time, dose: 10.0 mg/kg/injection, schedule: Q04DX003 (ip), vehicle: saline sonified 98 % of control | endpoint: mean survival time, dose: 20.0 mg/kg/injection, schedule: Q01DX009 (ip), vehicle: saline sonified 90 % of control | endpoint: mean survival time, dose: 20.0 mg/kg/injection, schedule: Q04DX003 (ip), vehicle: saline sonified 96 % of control | endpoint: mean survival time, dose: 100.0 mg/kg/injection, schedule: Q01DX009 (ip), vehicle: acetone 88 % of control | endpoint: mean survival time, dose: 200.0 mg/kg/injection, schedule: Q01DX009 (ip), vehicle: acetone 88 % of control | endpoint: mean survival time, dose: 400.0 mg/kg/injection, schedule: Q01DX009 (ip), vehicle: acetone 93 % of control

CCOC(=O)c1c2c3c(c(Br)ccc3n(C)c1=O)C(=O)c1ccccc1-2
inactive: endpoint: mean survival time, dose: 12.5 mg/kg/injection, schedule: Q01DX009 (ip), vehicle: saline with Tween-80 98 % of control | endpoint: mean survival time, dose: 25.0 mg/kg/injection, schedule: Q01DX009 (ip), vehicle: saline with Tween-80 96 % of control | [1] 98 % of control

O=P(OCc1ccccc1)(N(CCCl)CCCl)N1CCOCC1 (centres undefined)
inactive: endpoint: mean survival time, dose: 62.5 mg/kg/injection, schedule: Q01DX010 (ip), vehicle: saline 103 % of control | endpoint: mean survival time, dose: 125.0 mg/kg/injection, schedule: Q01DX010 (ip), vehicle: saline 101 % of control | endpoint: mean survival time, dose: 250.0 mg/kg/injection, schedule: Q01DX010 (ip), vehicle: saline 104 % of control

COC(=O)C(Cc1cnc[nH]1)NC(=O)c1ccccc1 (centres undefined)
inactive: [2] 103 % of control | [3] 104 % of control | [4] 97 % of control

Cc1ccc([N+](=O)[O-])cc1NC(=O)NNC(=O)CNC(=O)NCc1ccco1
inactive: [5] 91 % of control | [6] 89 % of control | [7] 97 % of control

O=NC1C2C=CC(C2)C1Cl (centres undefined)
inactive: endpoint: mean survival time, dose: 100.0 mg/kg/injection, schedule: Q01DX001 (ip), vehicle: saline 93 % of control | endpoint: mean survival time, dose: 200.0 mg/kg/injection, schedule: Q01DX001 (ip), vehicle: saline 88 % of control | endpoint: mean survival time, dose: 400.0 mg/kg/injection, schedule: Q01DX001 (ip), vehicle: saline 96 % of control

CC1(O)Nc2nc3nc[nH]c3c(=O)n2C1O (centres undefined)
inactive: endpoint: mean survival time, dose: 12.5 mg/kg/injection, schedule: Q01DX005 (ip), vehicle: water 94 % of control | endpoint: mean survival time, dose: 25.0 mg/kg/injection, schedule: Q01DX005 (ip), vehicle: water 90 % of control | endpoint: mean survival time, dose: 50.0 mg/kg/injection, schedule: Q01DX005 (ip), vehicle: water 100 % of control | endpoint: mean survival time, dose: 100.0 mg/kg/injection, schedule: Q01DX005 (ip), vehicle: water 94 % of control | endpoint: mean survival time, dose: 200.0 mg/kg/injection, schedule: Q01DX005 (ip), vehicle: water 93 % of control

COc1cc([N+](=O)[O-])ccc1NC(=O)NCc1ccccc1
inactive: endpoint: mean survival time, dose: 50.0 mg/kg/injection, schedule: Q04DX002 (ip), vehicle: saline with Tween-80 89 % of control and 94 % of control | [5] 100 % of control | [8] 88 % of control and 96 % of control and 97 % of control | [6] 95 % of control | [9] 93 % of control and 105 % of control | [7] 103 % of control | [10] 93 % of control

Cc1ccc(-c2nc(-c3ccccc3)[nH]c(=O)c2CCO)cc1
inactive: [2] 94 % of control | [3] 92 % of control | [4] 88 % of control

N#CC(=C1C=CC(=NO)C=C1)c1ccccc1
inactive: [1] 93 % of control | [5] 100 % of control | [2] 97 % of control | [6] 100 % of control | [3] 96 % of control

S=c1[nH]n(-c2ccccc2)c(=S)s1
inactive: endpoint: mean survival time, dose: 75.0 mg/kg/injection, schedule: Q04DX003 (ip), vehicle: saline 100 % of control

O=C(OCC(OC(=O)c1ccccc1)C1OC(OC(=O)c2ccccc2)C(OC(=O)c2ccccc2)C1OC(=O)c1ccccc1)c1ccccc1 (centres undefined)
inactive: endpoint: mean survival time, dose: 100.0 mg/kg/injection, schedule: Q01DX001 (ip), vehicle: Klucel (hydroxypropylcellulose) (HPC) 88 % of control | endpoint: mean survival time, dose: 200.0 mg/kg/injection, schedule: Q01DX001 (ip), vehicle: Klucel (hydroxypropylcellulose) (HPC) 95 % of control | endpoint: mean survival time, dose: 400.0 mg/kg/injection, schedule: Q01DX001 (ip), vehicle: Klucel (hydroxypropylcellulose) (HPC) 95 % of control

COc1ccc(Cl)cc1N
inactive: [2] 94 % of control | [3] 92 % of control | [4] 96 % of control

OCC1OC(c2cnn(-c3ccccc3)n2)C(O)C1O (centres undefined)
inactive: endpoint: median survival time, dose: 12.5 mg/kg/injection, schedule: Q01DX005 (ip), vehicle: water 103 % of control | endpoint: median survival time, dose: 25.0 mg/kg/injection, schedule: Q01DX005 (ip), vehicle: water 103 % of control | endpoint: median survival time, dose: 50.0 mg/kg/injection, schedule: Q01DX005 (ip), vehicle: water 102 % of control | endpoint: median survival time, dose: 100.0 mg/kg/injection, schedule: Q01DX005 (ip), vehicle: water 104 % of control | endpoint: median survival time, dose: 200.0 mg/kg/injection, schedule: Q01DX005 (ip), vehicle: water 102 % of control

CNC(C)c1ccc(C)cc1 (centres undefined)
inactive: endpoint: mean survival time, dose: 6.25 mg/kg/injection, schedule: Q04DX003 (ip), vehicle: saline with Tween-80 98 % of control | endpoint: mean survival time, dose: 12.5 mg/kg/injection, schedule: Q04DX003 (ip), vehicle: saline with Tween-80 108 % of control | endpoint: mean survival time, dose: 25.0 mg/kg/injection, schedule: Q04DX003 (ip), vehicle: saline with Tween-80 101 % of control

Cc1cccc(C(=O)CC(O)(C(F)(F)F)C(F)(F)F)c1
inactive: [5] 98 % of control | [6] 95 % of control | [7] 104 % of control

CCN(CC)CCCCNc1ccc(NCCCCN(CC)CC)c2c1C(=O)c1ccccc1C2=O
inactive: endpoint: mean survival time, dose: 25.0 mg/kg/injection, schedule: Q01DX009 (ip), vehicle: saline 109 % of control | endpoint: mean survival time, dose: 50.0 mg/kg/injection, schedule: Q01DX009 (ip), vehicle: saline 90 % of control | endpoint: mean survival time, dose: 100.0 mg/kg/injection, schedule: Q01DX009 (ip), vehicle: saline 95 % of control

C/C(=N\NC(N)=S)c1ccc2cc3c(cc2c1)OCO3
inactive: endpoint: mean survival time, dose: 75.0 mg/kg/injection, schedule: Q01DX001 (ip), vehicle: saline 119 % of control

CCC12CCCN3CCc4c(n(c5ccccc45)C(O)(C(=O)OC)C1)C32 (centres undefined)
inactive: endpoint: mean survival time, dose: 5.0 mg/kg/injection, schedule: Q01DX001 (ip), vehicle: saline 108 % of control | endpoint: mean survival time, dose: 10.0 mg/kg/injection, schedule: Q01DX001 (ip), vehicle: saline 101 % of control | endpoint: mean survival time, dose: 20.0 mg/kg/injection, schedule: Q01DX001 (ip), vehicle: saline 102 % of control | endpoint: mean survival time, dose: 40.0 mg/kg/injection, schedule: Q01DX001 (ip), vehicle: saline 101 % of control

Nc1c(Br)cc(Br)c2c1CCC2
inactive: [8] 94 % of control | [9] 105 % of control | [10] 94 % of control

O=Cc1ccc(OC(=O)Nc2cccc3ccccc23)cc1
inactive: [8] 91 % of control | [9] 98 % of control | [10] 87 % of control

CCC(=O)O/N=C(\c1ccccc1)c1cccnc1
inactive: endpoint: mean survival time, dose: 100.0 mg/kg/injection, schedule: Q01DX001 (ip), vehicle: other 113 % of control | endpoint: mean survival time, dose: 200.0 mg/kg/injection, schedule: Q01DX001 (ip), vehicle: other 98 % of control | endpoint: mean survival time, dose: 400.0 mg/kg/injection, schedule: Q01DX001 (ip), vehicle: other 101 % of control

COC(=O)c1cccc2c(Cl)cc3ccccc3c12
inactive: [5] 105 % of control | [2] 98 % of control | [6] 105 % of control | [3] 104 % of control | [7] 103 % of control | [4] 97 % of control

N/N=C(/C(=O)c1ccccc1)c1ccccc1
inactive: [5] 95 % of control | [6] 97 % of control | [7] 95 % of control

Cc1ccc(C(=O)CCCCl)c(C)c1
inactive: [5] 111 % of control | [6] 104 % of control | [7] 104 % of control

Cc1c(N)cccc1F
inactive: endpoint: mean survival time, dose: 50.0 mg/kg/injection, schedule: Q01DX009 (ip), vehicle: saline sonified 95 % of control | endpoint: mean survival time, dose: 100.0 mg/kg/injection, schedule: Q04DX003 (ip), vehicle: saline 95 % of control | endpoint: mean survival time, dose: 200.0 mg/kg/injection, schedule: Q04DX003 (ip), vehicle: saline 95 % of control

OCCN(Cc1ccccc1)C(c1ccccc1)c1ccccc1
inactive: endpoint: mean survival time, dose: 100.0 mg/kg/injection, schedule: Q04DX003 (ip), vehicle: Klucel (hydroxypropylcellulose) (HPC) 91 % of control | endpoint: mean survival time, dose: 200.0 mg/kg/injection, schedule: Q04DX003 (ip), vehicle: Klucel (hydroxypropylcellulose) (HPC) 97 % of control | endpoint: mean survival time, dose: 400.0 mg/kg/injection, schedule: Q04DX003 (ip), vehicle: Klucel (hydroxypropylcellulose) (HPC) 97 % of control
